For the assay, the system named is MDA MB 231 cells. Put plainly: Wound healing (scratch wound) assay. In kind it is cell-based, human. The conditions noted are these: 24 hr. Here is the method: Wound healing assay was performed to understand the antimigration effects of NIIST-AC-1. The confluent monolayers of cells after making the scratch were treated with the test compounds at different concentrations for 24 hr. After the time interval, the wound closure by the migration of the cells was observed under the phase-contrast microscope (Nikon Eclipse TS100), and images were captured using NIS-Elements 3.21.00 imaging software at different time points (0, 24 h) at 4× magnification. The wound area was quantified using ImageJ 1.52p software.

This note sets out measurements from patent US20240376087A1, “PYRAZOLE AMIDE BASED COMPOUNDS AND USES AGAINST BREAST CANCER THEREOF” (COUNCIL OF SCIENTIFIC AND INDUSTRIAL RESEARCH AN INDIAN …, priority 2021, published 2024).

`COc1cc(-c2cc(C(=O)NCc3cc(C(F)(F)F)cc(C(F)(F)F)c3)[nH]n2)cc(OC)c1OC` [I-8, N-(3,5-bis(trifluoromethyl)benzyl)-3-(3,4,5-trimethoxyphenyl)-1H-pyrazole-5-carboxamide]: the cell migration entry is “cell migration inhibition was evident”.
